Assay [1] has as its target cAMP-dependent kinase type I (FICRhR) (Bos taurus, UniProt P00514). Kind of assay: biochemical. The text has this: When PKA is doubly labeled with fluorescein on its catalytic subunits and rhodamine on its regulatory subunits to produce FICRhR, fluorescence energy transfer from the fluorescein to rhodamine occurs in the holoenzyme complex but is disrupted upon activation and dissociation of the subunits. The change in the ratio of fluorescein to rhodamine emissions parallels the increase in kinase activity and can be nondestructively imaged in single cells. REF-52 fibroblasts were microinjected with FICRhR and emission ratio images recorded at room temperature as previously described (27).

The target of assay [2] is cAMP-dependent protein kinase (PKA) (Bos taurus, UniProt P00514). The assay can be described thus: cell-based. Type of assay: cell-based.
For assay [3], the system named is T84 cells. The assay can be described thus: cells. It counts as cell-based. The settings on record: for EC50: Homo sapiens, T84, 0.2 h, ISC 12 min after addition, read-out: EC50 for Cl- secretion. The text has this:
A convenient test system is the intestinal cell line T84, in which chloride secretion can be continuously monitored by mounting confluent monolayers of cells in Ussing chambers (42).

Assay [4] concerns angelfish (Pterophyllum scalare) melanophores. Kind of assay: Pigment dispersion in angelfish melanophores on isolated scales (FIG. 3). It counts as cell-based. The settings on record: for reversibility of dispersion (in words): removal of extracellular compound and epinephrine. The method, then: Melanophores permit a visual single-cell assay for the ability of cAMP analogs to enter cells and mimic cAMP actions. The melanophores were isolated on angelfish scales and the epidermis was stripped off. […] Dispersion was just detectable at 1 μM and half-maximal near 10 μM (FIG. 3A). […] The preceding examples are summarized in (64).

Assay [5] deals with 1321N1 astrocytoma cells. The assay can be described thus: Cytosolic free Ca2+ imaging (fura-2) in 1321N1 astrocytoma cells (FIGS. 7-9). It counts as cell-based. How it is done: Biological tests on 1321N1 astrocytoma cells were performed similarly to the tests on REF-52 cells (71). The concentration of Cytosolic free Ca^2+ (ordinate, in units of […]) in fura-2-loaded 1321N1 astrocytoma cells is shown as a function of time (abscissa, in units of seconds). At the dotted vertical line labeled 1, 20 μM inositol-1,4,5-triphosphate propionyloxymethyl ester (5a, R=Et, R'=H) was added. […] Subsequently the cells could respond to carbachol (200 μM, delivered at the dotted vertical line labeled 2), a drug that stimulates the endogenous generation of inositol-1,4,5-triphosphate. However, the response to carbachol is depressed by the prior treatment with the inositol-1,4,5-triphosphate propionyloxymethyl ester. Likewise the Ca^2+ response to thapsigargin (100 nM, delivered at the dotted vertical line labeled 3), another drug that releases stored Ca^2+, is depressed.
A test similar to the one shown in FIG. 7 was conducted except that the medium lacked extracellular Ca^2+ and a dose of 60 μM inositol-1,4,5-triphosphate propionyloxymethyl ester was added at the dotted vertical line labeled 1. […] Because no extracellular Ca^2+ was present, this response must have represented release from intracellular Ca^2+ stores. […] The much greater degree of inhibition of the carbachol response compared to the previous example (FIG. 7) is due to the higher dose of the inositol-1,4,5-triphosphate propionyloxymethyl ester and the absence of extracellular Ca^2+, which reduces refilling of Ca^2+ stores.
In a further example, the same test as set forth above was conducted with astrocytoma cells, except that 2 μM inositol-1,4,5-triphosphate butyryloxymethyl ester (5a, R=Pr, R'=H) was used instead of the propionyloxymethyl ester.

Assay [6] concerns REF-52 fibroblasts. Kind of assay: Cytosolic free Ca2+ imaging (fura-2) in single REF-52 fibroblasts (FIG. 6). Type of assay: cell-based. The method, then:
The best-established biological effect of IP3 is to release Ca^2+ from internal stores (26), so IP3 /PM (5a, R=Et, R'=H) was tested by imaging cytosolic free Ca^2+ levels in single REF-52 fibroblasts using standard methodology (58). Cells were loaded with the Ca^2+ -indicator fura-2 and viewed by fluorescence excitation ratioing. IP3 /PM (40 μM) was applied extracellularly while monitoring cytosolic Ca^2+ concentrations.

The mark [7] stands for this setting: 20 μM, extracellular Ca2+ present, FIG. 7.
Setting [8] is: 60 μM, no extracellular Ca2+, FIG. 8.

A value given as a limit tells only on which side of the number the result lay.

cAMP-dependent kinase type I (FICRhR), sequence (P00514 whole entry): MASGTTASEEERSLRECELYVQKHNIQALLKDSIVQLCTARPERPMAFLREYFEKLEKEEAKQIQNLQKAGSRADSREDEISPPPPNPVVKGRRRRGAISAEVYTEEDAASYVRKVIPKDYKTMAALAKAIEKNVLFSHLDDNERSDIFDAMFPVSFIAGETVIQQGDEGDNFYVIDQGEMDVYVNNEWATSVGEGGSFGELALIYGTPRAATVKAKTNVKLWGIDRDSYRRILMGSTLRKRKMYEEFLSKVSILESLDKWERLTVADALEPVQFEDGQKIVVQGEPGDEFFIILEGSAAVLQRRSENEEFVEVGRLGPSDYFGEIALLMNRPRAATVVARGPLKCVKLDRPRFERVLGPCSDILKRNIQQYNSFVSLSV

Regarding `CCCC(=O)Nc1ncnc2c1ncn2[C@@H]1O[C@@H]2COP(=O)(O)O[C@H]2[C@H]1OC(=O)CCC` [Bt2 cAMP, N^6,O^2 '-dibutyryl cAMP, reference compound], the activation at 10 µM in assay [1] (10 μM (printed)) was determined as 16%; in assay [1] (second Bt2 cAMP column, 10 μM printed), 61%. In assay [1] (in vitro, FICRhR), the “potency relative to cAMP” value was “roughly 1/100”. Also, the “delay and time course of PKA activation relative to Bt2 cAMP/AM (in words)” value in assay [2] (1 mM, FIG. 1 Graph B) is “Much the same delay and overall time course”. For the same compound, the “concentration required for PKA activation” value in assay [2] (extracellular application) worked out at 1 mM. In addition, in assay [3], the EC50 is 400 µM. Moreover, the “pigment dispersion (in words)” value in assay [4] (1 mM) was “unable to cause any detectable dispersion”.

`CCCC(=O)Nc1ncnc2c1ncn2[C@@H]1O[C@@H]2COP(=O)(OCOC(C)=O)O[C@H]2[C@H]1OC(=O)CCC` (some centres unmarked) [Bt2 cAMP/AM, N^6,O^2 '-Dibutyryl Adenosine 3',5'-cyclic Monophosphate Acetoxymethyl Ester]: the “separation of the FICRhR subunits in vitro (in words)” value in assay [1] (1 μM) is recorded as “no separation of the subunits”. The activation at 10 µM in assay [1] (10 μM (printed)) is 0%. For the same compound, the “time to maximal change in fluorescence ratio” value in assay [2] (10 μM (highest dose), added extracellularly, room temperature) is at most 15 min. Moreover, in assay [2] (REF52, 1 μM (intermediate dose), read-out: plateau of fluorescence ratio change (% of the maximal change)), the activation at 1 µM is over 50%. In addition, the “onset of separation of regulatory and catalytic subunit of FICRhR after addition” value in assay [2] (extracellular addition) is given as “roughly 2 min”. Moreover, the “time to maximum ISC” value in assay [3] (3 μM, serosal bathing solution) was 20 min. For the same compound, the “increase in potency by acetoxymethyl group (vs Bt2 cAMP)” value in assay [3] (Cl- secretion) amounted to 200 fold. Further, the EC50 was 2 µM in assay [3] and about 10 µM in assay [4] (Pterophyllum scalare, Melanophore, read-out: concentration for half-maximal dispersion). For the same compound, the “kinetics of activation, ester vs Bt2 cAMP (in words)” value in assay [3] (T84 cells) was “essentially indistinguishable kinetics of activation”. Besides, the “ISC response at other concentrations (in words)” value in assay [3] (relative to 3 μM) is given as “Higher concentrations of the derivative caused faster but not significantly greater responses, whereas lower concentrations reached lower maximum ISC values”. For the same compound, the “pigment dispersion (in words)” value in assay [4] (100 μM, extracellular) was “essentially complete dispersal”. Besides, the “reversibility of dispersion (in words)” value in assay [4] (100 μM) is reported as “easily reversed”; in assay [4] (1 mM), “could not be readily reversed”. In addition, in assay [4] (1 mM), the “onset of dispersion relative to 100 μM (in words)” value is “slightly faster onset of action”. Besides, the minimal effective concentration in assay [4] (Pterophyllum scalare, Melanophore, read-out: concentration at which dispersion was just detectable) came out at 1 µM. Also, the “increase in potency by AM ester group (vs Bt2 cAMP)” value in assay [4] (melanophore dispersion) was “more than 1000”.

For the compound `Nc1ncnc2c1nc(Br)n2[C@@H]1O[C@@H]2COP(=O)(O)O[C@H]2[C@H]1O` [Compound 8-Br-cAMP, 8-bromo-cAMP, reference compound], the EC50 in assay [3] stood at 1500 µM.

`Nc1ncnc2c1nc(Sc1ccc(Cl)cc1)n2[C@@H]1O[C@@H]2COP(=O)(O)O[C@H]2[C@H]1O` [Compound 8-pCPT-cAMP, 8-para-chlorophenylthio (cCPT) cAMP, reference compound]: the EC50 in assay [3] worked out at 100 µM.

As for `CCC(=O)OCOP(=O)(OCOC(=O)CC)O[C@@H]1[C@H](O)[C@H](O)[C@@H](OP(=O)(OCOC(=O)CC)OCOC(=O)CC)[C@H](OP(=O)(OCOC(=O)CC)OCOC(=O)CC)[C@H]1O` [IP3 /PM, D-myo-inositol-1,4,5-triphosphate propionyloxymethyl ester], in assay [5] (setting [7]), the “Ca2+ response to thapsigargin (100 nM) after treatment (in words)” value is “depressed”, the “delay of cytosolic Ca2+ elevation” value is “about 100 second”, the “elevation of cytosolic Ca2+ (in words)” value was “sizable elevation of cytosolic Ca^2+” and the “response to carbachol (200 μM) after treatment (in words)” value is “depressed”. In addition, in assay [5] (setting [8]), the “delay of cytosolic Ca2+ elevation” value is about 50 s, the “elevation of cytosolic Ca2+ (in words)” value is on record as “sizable elevation of cytosolic Ca^2+” and the “response to carbachol (200 μM) after treatment (in words)” value is recorded as “greatly depressed”. Also, the “Ca2+ release from internal stores (in words)” value in assay [5] (summary, intact REF-52 fibroblasts and astrocytoma cells) is given as “released Ca^2+ from internal stores”. Moreover, the “cytosolic Ca2+ concentration after addition (in words)” value in assay [6] (40 μM, extracellular) is on record as “increased rapidly”. The “effect of subsequent vasopressin (in words)” value in assay [6] (after 40 μM IP3/PM) is recorded as “much less effect than normal”.

In the case of “D-myo-inositol-1,4,5-triphosphate butyryloxymethyl ester [IP3 /BM]”, in assay [5] (2 μM, FIG. 9), the “potency relative to propionyloxymethyl ester (in words)” value is on record as “somewhat more potent”; the “rate of effects relative to propionyloxymethyl ester (in words)” value is “slower to appear and decay”.

The record behind these values is US5834436A, “Membrane-permeant second messengers” (priority 1995, dated 1998).
